Assay results published in ChEMBL document CHEMBL1201862, “PubChem BioAssay data set” (2004).
Values belong to the molecule of their own block, whether it stands above or below them. Calls of active or inactive are those of the source.

Assays:
[1] = molecular target: T1, Heat shock factor protein 1 (Mus musculus, UniProt P38532); assay: inhibition of MG132-induced HSE-luciferase signal, confirmation, cell-based, NIH3T3, luminescence, dose retest (AID 2382); format: functional;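 further: NIH3T3 fibroblasts with HSF1-driven luciferase reporter stressed by proteasome inhibitor MG132; luminescence from HSF1-driven luciferase expression after 8 hours of MG132 stress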
T1 sequence (P38532 whole entry): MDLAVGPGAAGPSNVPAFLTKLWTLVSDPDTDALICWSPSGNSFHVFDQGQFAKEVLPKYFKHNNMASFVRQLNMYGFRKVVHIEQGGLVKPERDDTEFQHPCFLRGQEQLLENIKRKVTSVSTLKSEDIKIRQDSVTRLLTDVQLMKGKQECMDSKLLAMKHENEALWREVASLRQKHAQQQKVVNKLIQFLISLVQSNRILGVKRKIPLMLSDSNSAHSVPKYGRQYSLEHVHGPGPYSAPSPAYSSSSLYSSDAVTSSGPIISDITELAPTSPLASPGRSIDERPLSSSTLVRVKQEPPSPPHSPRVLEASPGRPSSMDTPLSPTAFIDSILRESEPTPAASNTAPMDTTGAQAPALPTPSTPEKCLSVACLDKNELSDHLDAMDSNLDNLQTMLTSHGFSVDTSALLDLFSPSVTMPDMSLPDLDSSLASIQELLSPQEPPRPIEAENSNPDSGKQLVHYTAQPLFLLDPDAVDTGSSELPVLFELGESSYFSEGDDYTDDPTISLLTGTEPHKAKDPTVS

[2] = molecular target: T2, Short transient receptor potential channel 4 (Mus musculus, UniProt Q9QUQ5); assay: TRPC4 positive allosteric modulators, dose response, cell-based, HEK293 TRPC4/mu-opioid, Fluo-4 calcium, EC20 DAMGO (AID 434941); format: functional
T2 sequence (Q9QUQ5 whole entry): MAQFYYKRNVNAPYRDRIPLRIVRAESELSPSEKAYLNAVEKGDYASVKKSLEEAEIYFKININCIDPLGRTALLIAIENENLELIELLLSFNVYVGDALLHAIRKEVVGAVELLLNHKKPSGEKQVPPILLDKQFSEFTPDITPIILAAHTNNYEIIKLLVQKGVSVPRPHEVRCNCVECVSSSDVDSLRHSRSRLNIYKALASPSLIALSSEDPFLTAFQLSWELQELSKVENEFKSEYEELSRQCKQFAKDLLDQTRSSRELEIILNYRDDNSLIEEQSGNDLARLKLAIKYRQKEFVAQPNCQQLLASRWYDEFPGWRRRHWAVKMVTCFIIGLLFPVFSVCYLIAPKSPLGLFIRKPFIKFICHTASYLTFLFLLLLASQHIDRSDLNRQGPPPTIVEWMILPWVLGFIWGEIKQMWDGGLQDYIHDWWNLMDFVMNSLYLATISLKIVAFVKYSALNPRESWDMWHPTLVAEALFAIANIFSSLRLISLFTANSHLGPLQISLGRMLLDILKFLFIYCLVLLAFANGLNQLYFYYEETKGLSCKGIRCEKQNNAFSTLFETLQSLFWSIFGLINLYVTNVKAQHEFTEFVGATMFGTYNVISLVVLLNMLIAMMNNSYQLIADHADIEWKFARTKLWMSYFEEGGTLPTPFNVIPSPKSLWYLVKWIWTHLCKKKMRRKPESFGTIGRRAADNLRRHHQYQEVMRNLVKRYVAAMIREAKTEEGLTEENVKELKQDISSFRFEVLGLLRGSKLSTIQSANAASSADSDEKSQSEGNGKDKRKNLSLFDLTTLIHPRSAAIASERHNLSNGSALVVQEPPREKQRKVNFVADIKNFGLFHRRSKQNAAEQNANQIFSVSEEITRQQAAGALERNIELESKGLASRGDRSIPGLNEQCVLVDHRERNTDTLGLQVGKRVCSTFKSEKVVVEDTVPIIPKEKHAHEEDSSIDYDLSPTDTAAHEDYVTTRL

HEK293 = assay: inhibitors of LMP1-driven NF-kB reporter, dose response, cell-based, HEK293, luciferase, cherry-pick (AID 588343); format: functional; details: Homo sapiens
[3] = molecular target: T3, RNA-binding protein pos-1 (Caenorhabditis elegans, UniProt G5EF15); assay: inhibitors of POS-1/mex-3 RNA binding, dose response, biochemical, fluorescence polarization (AID 1964);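 further: purified POS-1 fused to maltose binding protein made in E. coli; potency of compounds blocking POS-1 binding to fluorescent RNA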
T3 sequence (G5EF15 whole entry): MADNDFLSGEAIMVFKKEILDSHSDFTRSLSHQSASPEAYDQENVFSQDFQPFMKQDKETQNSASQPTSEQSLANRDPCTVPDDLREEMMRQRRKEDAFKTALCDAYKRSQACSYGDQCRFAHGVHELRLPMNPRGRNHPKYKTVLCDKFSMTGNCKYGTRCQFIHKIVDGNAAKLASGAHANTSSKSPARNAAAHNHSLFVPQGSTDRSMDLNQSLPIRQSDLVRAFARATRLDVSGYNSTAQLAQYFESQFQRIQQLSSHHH

[4] = molecular target: Luciferin 4-monooxygenase (Photinus pyralis, UniProt P08659); assay: Counter Screen for Luciferase-based Assay Positives. [Related pubchem assays: 620, 618, 411 ]
Sequence of Luciferin 4-monooxygenase (P08659 whole entry): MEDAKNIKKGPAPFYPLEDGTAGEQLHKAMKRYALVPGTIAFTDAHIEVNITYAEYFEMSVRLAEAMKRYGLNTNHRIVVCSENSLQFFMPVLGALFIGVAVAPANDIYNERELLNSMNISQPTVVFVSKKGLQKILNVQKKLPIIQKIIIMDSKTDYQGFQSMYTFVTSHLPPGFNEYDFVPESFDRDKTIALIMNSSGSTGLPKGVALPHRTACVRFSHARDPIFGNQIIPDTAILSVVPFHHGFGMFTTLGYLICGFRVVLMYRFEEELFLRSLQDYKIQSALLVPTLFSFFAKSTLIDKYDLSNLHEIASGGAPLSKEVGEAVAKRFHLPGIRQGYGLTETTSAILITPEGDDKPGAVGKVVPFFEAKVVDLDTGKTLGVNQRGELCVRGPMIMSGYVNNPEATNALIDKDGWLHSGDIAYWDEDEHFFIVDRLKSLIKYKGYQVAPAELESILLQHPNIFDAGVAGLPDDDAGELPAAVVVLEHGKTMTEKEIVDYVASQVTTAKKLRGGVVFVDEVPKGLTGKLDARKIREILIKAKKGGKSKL

[5] = molecular target: T4, Zinc finger protein mex-5 (Caenorhabditis elegans, UniProt Q9XUB2); assay: MEX-5/TCR-2 RNA interaction inhibitors, dose response, biochemical, C. elegans, fluorescence polarization (AID 1960)
T4 sequence (Q9XUB2 whole entry): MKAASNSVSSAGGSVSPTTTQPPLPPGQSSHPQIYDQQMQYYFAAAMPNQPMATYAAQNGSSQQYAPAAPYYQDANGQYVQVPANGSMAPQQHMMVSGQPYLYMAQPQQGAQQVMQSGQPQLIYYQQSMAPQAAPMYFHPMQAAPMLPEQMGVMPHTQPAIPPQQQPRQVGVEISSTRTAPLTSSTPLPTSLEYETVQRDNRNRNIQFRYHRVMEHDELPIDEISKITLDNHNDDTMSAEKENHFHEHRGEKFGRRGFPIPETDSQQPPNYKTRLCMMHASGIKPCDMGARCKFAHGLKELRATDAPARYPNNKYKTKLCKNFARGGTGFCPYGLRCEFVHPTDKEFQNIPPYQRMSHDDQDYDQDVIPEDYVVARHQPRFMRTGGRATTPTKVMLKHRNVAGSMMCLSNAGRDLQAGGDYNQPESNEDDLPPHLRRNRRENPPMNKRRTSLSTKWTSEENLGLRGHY

HT-1080 = assay: cytotoxicity in HT1080 fibrosarcoma cells, cell-based, fluorescence readout (AID 620); format: functional; details: Homo sapiens
HeLa = assay: HeLa cell cytotoxicity, dose response, cytotoxicity control, 24 h, cherry-picked samples (AID 504726); format: functional, cell-based; details: Homo sapiens;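 further: potency for cytotoxicity as loss of luminescence signal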
Salmon testes DNA = assay: DNA intercalators displacing acridine orange, dose response, artefact control for KSHV LANA DNA-binding inhibitor project, biochemical, fluorescence polarization, cherry-picked samples, set 2 (AID 504727); design: species or system Salmonidae
ORF 73 = ORF 73 (Human herpesvirus 8, UniProt O40947); assay: inhibitors of C-LANA binding to LBS DNA, dose response, biochemical, fluorescence polarization, cherry-picked samples (AID 504725); design: species or system Human gammaherpesvirus 8;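 further: fluorescence polarization of a labeled DNA duplex reporting LANA DNA binding; potency is for inhibitors that block LANA binding to the DNA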
Sequence of ORF 73 (O40947 whole entry): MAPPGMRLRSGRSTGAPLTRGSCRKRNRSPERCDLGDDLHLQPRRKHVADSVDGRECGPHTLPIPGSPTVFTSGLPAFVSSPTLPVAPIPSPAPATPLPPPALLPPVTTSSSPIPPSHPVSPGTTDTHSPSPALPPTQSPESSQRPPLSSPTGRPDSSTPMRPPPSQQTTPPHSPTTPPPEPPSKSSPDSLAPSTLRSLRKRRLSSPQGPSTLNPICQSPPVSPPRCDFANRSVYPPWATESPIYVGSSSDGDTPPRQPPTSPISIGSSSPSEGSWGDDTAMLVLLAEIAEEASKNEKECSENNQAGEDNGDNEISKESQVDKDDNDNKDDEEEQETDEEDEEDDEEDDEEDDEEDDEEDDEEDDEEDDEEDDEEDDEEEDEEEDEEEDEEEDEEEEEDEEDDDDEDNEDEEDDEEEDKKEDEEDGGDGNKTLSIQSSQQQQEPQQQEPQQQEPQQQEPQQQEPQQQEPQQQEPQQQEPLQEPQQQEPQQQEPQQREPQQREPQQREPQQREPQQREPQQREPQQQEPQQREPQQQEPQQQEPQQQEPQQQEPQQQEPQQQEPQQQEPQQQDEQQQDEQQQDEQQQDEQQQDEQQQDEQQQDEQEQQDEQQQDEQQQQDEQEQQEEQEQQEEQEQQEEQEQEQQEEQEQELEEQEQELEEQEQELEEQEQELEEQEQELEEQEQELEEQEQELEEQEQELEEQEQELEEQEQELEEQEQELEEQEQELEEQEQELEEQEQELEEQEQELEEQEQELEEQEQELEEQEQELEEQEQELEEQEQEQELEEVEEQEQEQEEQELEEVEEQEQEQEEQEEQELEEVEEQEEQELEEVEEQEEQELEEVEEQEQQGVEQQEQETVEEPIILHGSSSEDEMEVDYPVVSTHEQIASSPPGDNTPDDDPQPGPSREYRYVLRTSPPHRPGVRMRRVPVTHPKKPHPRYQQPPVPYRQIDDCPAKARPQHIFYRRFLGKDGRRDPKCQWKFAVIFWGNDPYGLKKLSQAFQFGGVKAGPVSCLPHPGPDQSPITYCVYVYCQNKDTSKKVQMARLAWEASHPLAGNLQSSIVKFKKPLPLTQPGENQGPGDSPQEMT

[6] = molecular target: T5, Microphthalmia-associated transcription factor (Homo sapiens, UniProt O75030); assay: TRPM1 promoter luciferase signal decrease, dose response, MITF inhibitor project, cell-based, SK-MEL-5, cherry-picked, set 3 (AID 493073); format: functional
T5 sequence (O75030 whole entry): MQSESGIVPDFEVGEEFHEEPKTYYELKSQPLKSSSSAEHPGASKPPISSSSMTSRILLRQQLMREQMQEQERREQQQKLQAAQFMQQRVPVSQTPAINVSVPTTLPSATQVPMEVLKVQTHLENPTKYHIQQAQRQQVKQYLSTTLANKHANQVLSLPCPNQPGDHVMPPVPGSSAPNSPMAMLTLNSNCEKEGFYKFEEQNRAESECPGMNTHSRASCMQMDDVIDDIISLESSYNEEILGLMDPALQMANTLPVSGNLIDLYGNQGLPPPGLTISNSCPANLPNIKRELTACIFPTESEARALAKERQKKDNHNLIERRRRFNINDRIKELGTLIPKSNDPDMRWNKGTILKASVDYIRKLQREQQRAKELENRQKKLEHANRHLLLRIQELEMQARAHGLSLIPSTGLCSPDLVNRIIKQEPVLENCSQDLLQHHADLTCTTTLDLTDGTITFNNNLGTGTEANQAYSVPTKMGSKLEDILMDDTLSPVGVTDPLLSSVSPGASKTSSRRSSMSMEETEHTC

[7] = HepG2 cell cytotoxicity, dose response, cytotoxicity control, ATP luminescence, cherry-pick, set 6 (AID 1053125); format: functional, cell-based
[8] = Artemis endonuclease inhibitor potency, dose response, biochemical, fluorescence intensity (AID 720701); format: functional;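 further: Artemis endonuclease enzyme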
cells [9] = details: A549
cells [10] = details: HEK293
[11] = molecular target: Voltage-dependent T-type calcium channel subunit alpha-1H (Homo sapiens, UniProt O95180); assay: Cav3.2 T-type channel inhibitors, cell-based, synthetic library set 1, calcium flux (AID 493022); format: functional
Sequence of Voltage-dependent T-type calcium channel subunit alpha-1H (O95180 whole entry): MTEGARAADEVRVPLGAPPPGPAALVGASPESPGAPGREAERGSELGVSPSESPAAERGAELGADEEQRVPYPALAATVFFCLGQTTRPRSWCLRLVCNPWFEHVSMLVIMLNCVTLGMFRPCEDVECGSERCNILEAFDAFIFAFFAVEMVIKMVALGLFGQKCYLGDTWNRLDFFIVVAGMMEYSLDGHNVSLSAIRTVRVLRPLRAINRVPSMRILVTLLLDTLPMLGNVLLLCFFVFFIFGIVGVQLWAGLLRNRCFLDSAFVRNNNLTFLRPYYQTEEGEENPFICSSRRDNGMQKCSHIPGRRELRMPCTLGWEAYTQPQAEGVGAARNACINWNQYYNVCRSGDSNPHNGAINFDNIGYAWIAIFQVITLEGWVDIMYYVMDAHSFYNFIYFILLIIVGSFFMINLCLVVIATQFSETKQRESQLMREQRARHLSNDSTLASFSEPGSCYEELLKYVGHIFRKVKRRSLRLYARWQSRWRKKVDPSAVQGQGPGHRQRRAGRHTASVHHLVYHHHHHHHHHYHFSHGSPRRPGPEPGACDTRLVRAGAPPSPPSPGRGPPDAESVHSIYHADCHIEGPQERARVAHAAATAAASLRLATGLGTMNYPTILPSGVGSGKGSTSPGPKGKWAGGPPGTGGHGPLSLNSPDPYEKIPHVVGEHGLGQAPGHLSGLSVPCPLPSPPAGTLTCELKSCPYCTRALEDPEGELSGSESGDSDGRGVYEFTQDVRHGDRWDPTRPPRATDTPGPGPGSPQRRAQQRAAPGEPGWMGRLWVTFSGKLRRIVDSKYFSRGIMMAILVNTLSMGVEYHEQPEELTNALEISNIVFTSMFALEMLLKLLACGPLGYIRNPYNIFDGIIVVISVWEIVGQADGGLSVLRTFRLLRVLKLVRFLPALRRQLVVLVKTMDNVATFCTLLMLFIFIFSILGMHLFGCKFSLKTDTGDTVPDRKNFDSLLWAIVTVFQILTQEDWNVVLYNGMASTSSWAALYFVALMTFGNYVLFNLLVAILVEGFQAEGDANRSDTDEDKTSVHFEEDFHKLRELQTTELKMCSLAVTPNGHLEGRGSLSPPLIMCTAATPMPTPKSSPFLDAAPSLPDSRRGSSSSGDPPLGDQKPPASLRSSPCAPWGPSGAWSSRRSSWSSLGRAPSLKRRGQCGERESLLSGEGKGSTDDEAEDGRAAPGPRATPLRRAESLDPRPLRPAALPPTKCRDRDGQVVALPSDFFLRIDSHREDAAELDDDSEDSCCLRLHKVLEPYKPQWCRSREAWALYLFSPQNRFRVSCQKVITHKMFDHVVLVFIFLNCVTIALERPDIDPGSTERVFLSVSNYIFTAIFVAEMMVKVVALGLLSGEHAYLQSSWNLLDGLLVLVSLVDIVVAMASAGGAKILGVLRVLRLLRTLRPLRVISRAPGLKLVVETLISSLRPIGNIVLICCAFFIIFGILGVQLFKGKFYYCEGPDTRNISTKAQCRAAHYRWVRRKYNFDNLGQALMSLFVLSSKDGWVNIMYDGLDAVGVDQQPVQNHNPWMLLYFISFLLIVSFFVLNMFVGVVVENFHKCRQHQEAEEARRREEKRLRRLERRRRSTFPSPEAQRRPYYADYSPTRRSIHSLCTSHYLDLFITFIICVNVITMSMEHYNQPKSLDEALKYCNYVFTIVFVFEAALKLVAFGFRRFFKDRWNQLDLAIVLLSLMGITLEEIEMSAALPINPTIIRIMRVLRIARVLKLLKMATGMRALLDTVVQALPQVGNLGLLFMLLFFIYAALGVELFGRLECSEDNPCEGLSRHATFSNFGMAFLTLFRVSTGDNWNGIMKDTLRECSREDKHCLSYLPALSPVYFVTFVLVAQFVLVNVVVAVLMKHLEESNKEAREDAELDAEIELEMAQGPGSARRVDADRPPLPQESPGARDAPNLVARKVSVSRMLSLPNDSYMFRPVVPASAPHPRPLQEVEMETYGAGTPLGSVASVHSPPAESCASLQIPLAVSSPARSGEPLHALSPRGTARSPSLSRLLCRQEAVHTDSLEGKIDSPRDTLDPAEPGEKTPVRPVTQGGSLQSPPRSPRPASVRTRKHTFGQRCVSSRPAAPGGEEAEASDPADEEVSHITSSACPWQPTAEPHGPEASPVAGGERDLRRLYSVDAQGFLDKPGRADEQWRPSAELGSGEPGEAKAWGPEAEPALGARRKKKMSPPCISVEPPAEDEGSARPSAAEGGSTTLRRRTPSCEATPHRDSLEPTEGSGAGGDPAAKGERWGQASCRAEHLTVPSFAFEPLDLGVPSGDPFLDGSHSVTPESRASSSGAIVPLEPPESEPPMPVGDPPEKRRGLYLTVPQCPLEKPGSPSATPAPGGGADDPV

Caspase-3 = molecular target: T6, Caspase-3 (Homo sapiens, UniProt P42574); assay: procaspase-3 activators, dose response, biochemical, absorbance (AID 489014)
T6 sequence (P42574 whole entry): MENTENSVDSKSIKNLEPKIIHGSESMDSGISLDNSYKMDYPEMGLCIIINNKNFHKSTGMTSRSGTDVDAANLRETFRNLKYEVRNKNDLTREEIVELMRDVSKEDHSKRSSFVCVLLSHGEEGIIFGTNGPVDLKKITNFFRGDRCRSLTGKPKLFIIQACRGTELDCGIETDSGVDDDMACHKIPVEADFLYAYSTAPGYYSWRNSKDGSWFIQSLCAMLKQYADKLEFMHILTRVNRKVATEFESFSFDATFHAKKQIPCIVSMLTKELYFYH

Caspase-7 = Caspase-7 (Homo sapiens, UniProt P55210); assay: procaspase-7 activators, dose response, counter-screen for procaspase-3 activator project, biochemical, absorbance (AID 489013)
Sequence of Caspase-7 (P55210 24-198 limits assumed): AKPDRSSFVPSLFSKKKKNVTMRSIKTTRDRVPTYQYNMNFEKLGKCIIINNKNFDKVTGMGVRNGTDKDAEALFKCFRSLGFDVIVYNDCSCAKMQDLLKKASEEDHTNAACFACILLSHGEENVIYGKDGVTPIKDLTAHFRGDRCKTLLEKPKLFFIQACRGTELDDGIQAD
Sequence of Caspase-7 (P55210 207-303 limits assumed): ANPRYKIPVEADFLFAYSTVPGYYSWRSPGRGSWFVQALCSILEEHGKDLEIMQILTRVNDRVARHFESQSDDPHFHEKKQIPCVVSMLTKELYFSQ

[12] = molecular target: G-protein coupled receptor 35 (Homo sapiens, UniProt Q9HC97); assay: SAR analysis of Antagonists of the GPR35 Receptor using an Image-Based Assay - Set 5. [Related pubchem assays (depositor defined):AID2058, AID2079]; format: functional
[13] = molecular target: G-protein coupled receptor 55 (Homo sapiens, UniProt Q9Y2T6); assay: SAR Analysis of Selective Antagonists of GPR55 using an Image-Based Assay - Set 3. [Related pubchem assays (depositor defined):AID2058, AID2079]; format: functional
Sequence of G-protein coupled receptor 55 (Q9Y2T6 whole entry): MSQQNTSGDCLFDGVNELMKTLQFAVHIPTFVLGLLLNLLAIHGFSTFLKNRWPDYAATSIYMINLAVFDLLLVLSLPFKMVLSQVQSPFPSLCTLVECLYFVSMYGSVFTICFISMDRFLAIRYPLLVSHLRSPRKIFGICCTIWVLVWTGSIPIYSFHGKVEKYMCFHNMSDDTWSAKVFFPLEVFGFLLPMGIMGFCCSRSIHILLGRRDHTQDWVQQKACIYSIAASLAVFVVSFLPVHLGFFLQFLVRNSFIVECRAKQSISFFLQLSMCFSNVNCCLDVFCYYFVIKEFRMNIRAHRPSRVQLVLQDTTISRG

[14] = molecular target: DNA dC->dU-editing enzyme APOBEC-3A (Homo sapiens, UniProt P31941); assay: APOBEC3A DNA deaminase inhibitors, dose response, biochemical (AID 504722); format: functional
[15] = molecular target: DNA dC->dU-editing enzyme APOBEC-3G (Homo sapiens, UniProt Q9HC16); assay: Dose Response confirmation of small molecule APOBEC3G DNA Deaminase Inhibitors via a fluorescence-based single-stranded DNA deaminase assay. [Related pubchem assays (depositor defined):AID493012, AID493028]; format: functional
Sequence of DNA dC->dU-editing enzyme APOBEC-3G (Q9HC16 whole entry): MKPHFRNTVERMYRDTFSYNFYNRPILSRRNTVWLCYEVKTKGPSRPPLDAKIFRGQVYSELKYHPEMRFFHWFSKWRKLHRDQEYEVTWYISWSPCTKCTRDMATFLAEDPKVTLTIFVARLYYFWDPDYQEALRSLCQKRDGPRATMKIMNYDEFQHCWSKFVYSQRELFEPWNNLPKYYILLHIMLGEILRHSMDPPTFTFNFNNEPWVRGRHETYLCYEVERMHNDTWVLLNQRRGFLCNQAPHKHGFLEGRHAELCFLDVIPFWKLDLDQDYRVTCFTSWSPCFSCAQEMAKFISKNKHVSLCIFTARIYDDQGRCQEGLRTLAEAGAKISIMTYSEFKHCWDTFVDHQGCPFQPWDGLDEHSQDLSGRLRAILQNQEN

[16] = molecular target: T7, Rac GTPase-activating protein 1 (Homo sapiens, UniProt Q9H0H5); assay: MgcRacGAP GTPase-activating activity inhibitors, confirmation, biochemical, ADP Hunter fluorescence, primary and confirmatory (AID 624330); format: functional
T7 sequence (Q9H0H5 whole entry): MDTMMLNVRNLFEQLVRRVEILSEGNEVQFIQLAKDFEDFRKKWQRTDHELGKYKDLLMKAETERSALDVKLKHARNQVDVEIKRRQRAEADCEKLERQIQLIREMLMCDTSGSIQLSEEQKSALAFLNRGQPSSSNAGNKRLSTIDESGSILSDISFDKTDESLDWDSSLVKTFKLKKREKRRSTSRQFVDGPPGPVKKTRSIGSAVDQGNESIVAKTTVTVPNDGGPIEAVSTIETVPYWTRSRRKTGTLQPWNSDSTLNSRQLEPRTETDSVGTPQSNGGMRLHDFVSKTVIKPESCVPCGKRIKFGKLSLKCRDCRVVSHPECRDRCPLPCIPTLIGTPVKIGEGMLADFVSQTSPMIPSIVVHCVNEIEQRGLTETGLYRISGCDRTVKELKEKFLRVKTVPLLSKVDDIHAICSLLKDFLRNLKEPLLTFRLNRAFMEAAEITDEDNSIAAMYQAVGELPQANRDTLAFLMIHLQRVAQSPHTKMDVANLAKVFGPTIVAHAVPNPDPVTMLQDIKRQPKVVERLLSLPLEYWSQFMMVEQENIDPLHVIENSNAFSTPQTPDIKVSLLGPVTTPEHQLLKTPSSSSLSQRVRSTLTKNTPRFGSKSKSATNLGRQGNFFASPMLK

Structure (SMILES): N#CC1=C(N)C(C#N)(C#N)C(c2cccnc2)C2CC(c3ccccc3)CC=C12 (stereo not drawn)
EC50 [1]: > 195 µM (not active)
EC50 [2]: 4.73 µM (active)
AC50 (HEK293): 10.5 µM (active)

Structure (SMILES): c1ccc(-c2cn3nc4c(nc3n2)CCCC4)cc1
EC50 [3]: 14.3 µM (active)
EC50 [4]: 0.29 µM (active)
EC50 [5]: 10.6 µM (active)
EC50 (HT-1080): > 50 µM (not active)
AC50 (HeLa): 31.1 µM (active)
AC50 (Salmon testes DNA): 169 µM (active)
AC50 (ORF 73): 94.3 µM (active)
AC50 [6]: 5.89 µM (active)
AC50 [7]: > 52 µM (inactive)
IC50 [8]: > 20 µM (inactive)
AC50 (cells [9]): 15.8 µM (active)
AC50 (cells [10]): 12.7 µM (active)

Structure (SMILES): O=[N+]([O-])c1cccc(/C=N/n2c(S)nnc2-c2cccnc2)c1
IC50 [14]: > 100 µM (inactive)
IC50 [15]: 2.33 µM (active)
IC50 [16]: 31.9 µM (active)

Now from value to molecule:

EC50 [11]: 10 µM (active)
Structure (SMILES): O=C(COc1ccc(Cl)cc1)Nc1nnc(-c2ccc3ccccc3c2)o1

EC50 (Caspase-3): > 85.2 µM (inactive)
EC50 (Caspase-7): > 85.2 µM (inactive)
Structure (SMILES): CC(=O)NCCc1nc2ccccc2n1Cc1ccc(C)cc1

IC50 [12]: 0.307 µM (active)
IC50 [13]: 6.58 µM (active)
Structure (SMILES): COC(=O)c1cnn(-c2ccccc2)c1/C=N/NC(=S)NC(C)(C)C
